Tested on: D. melanogaster nAChRs
Assay: Comparison of agonist activity between nAChRs expressed in X. laevis oocytes (one-way ANOVA, Kruskal-Wallis)
Type: cell-based
Method: We minimised the use of X. laevis according to the UK Animals (Scientific Procedures) Act, 1986. […] Oocytes were defolliculated after collagenase treatment in Ca^2+-free standard oocyte saline (Ca^2+-free SOS). cRNAs of the nAChR subunits and co-factors mixed at a concentration of 0.1 mg/mL was injected into oocytes at a volume of 50 nL. Then the oocytes were incubated in the incubation medium (SOS supplemented with sodium pyruvate (Nacalai Tesque, #13058–12), penicillin-streptomycin (MilliporeSigma, #P4333), gentamycin (Nacalai Tesque, #16672–04), and 4% horse serum (Thermo Fisher Scientific, #26050–070) for 3−4 days prior to electrophysiology.
Each defolliculated X. laevis oocyte was secured in a Perspex recording chamber and perfused with the standard oocyte saline (SOS) containing 0.5 μM atropine (SOSA) at a flow rate of 7−10 mL/min [48]. Two glass electrodes filled with 2 M KCl were impaled into each oocyte and the membrane potential was clamped at -100 mV. […] The peak amplitude of the response was measured and analysed by pCLAMP (Molecular Devices, USA).
Y=Imax/1+10^(logEC50‐X)nH
Where Y is the normalised response, X is log[ligand (M)], EC50 is the half maximal concentration (M), Imax is the maximum normalised response and nH is the Hill coefficient.
Prism software was employed for the statistical analyses. […] One-way ANOVA was used to analyse the differences of the ligand agonist activity in terms of pEC50 on the various nAChRs expressed in X. laevis as well as data obtained with D. melanogaster larvae and adults.

[1] = Dα1/Dα2/Dα3/Dβ1/Dβ2 vs. Dα1/Dα2/Dα4/Dβ1/Dβ2
[2] = Dα1/Dα2/Dα3/Dβ1/Dβ2 vs. Dα1/Dα2/Dβ1/Dβ2/Dβ3
[3] = Dα1/Dα2/Dα3/Dβ1/Dβ2 vs. Dα1/Dα3/Dα4/Dβ1/Dβ2
[4] = Dα1/Dα2/Dα3/Dβ1/Dβ2 vs. Dα1/Dα3/Dβ1/Dβ2/Dβ3
[5] = Dα1/Dα2/Dα3/Dβ1/Dβ2 vs. Dα2/Dα3/Dα4/Dβ1/Dβ2
[6] = Dα1/Dα2/Dα3/Dβ1/Dβ2 vs. Dα2/Dα3/Dβ1/Dβ2/Dβ3
[7] = Dα1/Dα2/Dα3/Dβ1 vs. Dα1/Dα2/Dα3/Dβ1/Dβ2
[8] = Dα1/Dα2/Dα3/Dβ1 vs. Dα1/Dα2/Dβ1/Dβ2
[9] = Dα1/Dα2/Dα3/Dβ1 vs. Dα1/Dα3/Dβ1/Dβ2
[10] = Dα1/Dα2/Dα3/Dβ1 vs. Dα1/Dβ1/Dβ2
[11] = Dα1/Dα2/Dα3/Dβ1 vs. Dα2/Dα3/Dβ1/Dβ2
[12] = Dα1/Dα2/Dα3/Dβ1 vs. Dα3/Dβ1/Dβ2
[13] = Dα1/Dα2/Dβ1/Dβ2 vs. Dα1/Dα2/Dα3/Dβ1/Dβ2
[14] = Dα1/Dα2/Dβ1/Dβ2 vs. Dα2/Dα3/Dβ1/Dβ2
[15] = Dα1/Dα2/Dβ1 vs. Dα1/Dα2/Dα3/Dβ1
[16] = Dα1/Dα2/Dβ1 vs. Dα1/Dα2/Dα3/Dβ1/Dβ2
[17] = Dα1/Dα2/Dβ1 vs. Dα1/Dα2/Dβ1/Dβ2
[18] = Dα1/Dα2/Dβ1 vs. Dα1/Dα3/Dβ1/Dβ2
[19] = Dα1/Dα2/Dβ1 vs. Dα2/Dα3/Dβ1/Dβ2
[20] = Dα1/Dα3/Dβ1/Dβ2 vs. Dα1/Dα2/Dα3/Dβ1/Dβ2
[21] = Dα1/Dα3/Dβ1/Dβ2 vs. Dα1/Dα2/Dβ1/Dβ2
[22] = Dα1/Dα3/Dβ1/Dβ2 vs. Dα2/Dα3/Dβ1/Dβ2
[23] = Dα1/Dα3/Dβ1 vs. Dα1/Dα2/Dα3/Dβ1
[24] = Dα1/Dα3/Dβ1 vs. Dα1/Dα2/Dα3/Dβ1/Dβ2
[25] = Dα1/Dα3/Dβ1 vs. Dα1/Dα2/Dβ1/Dβ2
[26] = Dα1/Dα3/Dβ1 vs. Dα1/Dα3/Dβ1/Dβ2
[27] = Dα1/Dα3/Dβ1 vs. Dα2/Dα3/Dβ1/Dβ2
[28] = Dα1/Dβ1/Dβ2 vs. Dα1/Dα2/Dα3/Dβ1/Dβ2
[29] = Dα1/Dβ1/Dβ2 vs. Dα1/Dα2/Dβ1/Dβ2

## CN/C(=N\[N+](=O)[O-])NCc1cnc(Cl)s1 [Clothianidin, clothianidin]
[1]
  Difference of Imax values, nAChRs compared: -0.189
  Difference of pEC50 values, nAChRs compared: -0.13
[2]
  Difference of Imax values, nAChRs compared: -0.162
  Difference of pEC50 values, nAChRs compared: 0.92
[3]
  Difference of Imax values, nAChRs compared: 0.388
  Difference of pEC50 values, nAChRs compared: -0.35
[4]
  Difference of Imax values, nAChRs compared: 0.281
  Difference of pEC50 values, nAChRs compared: -1.01
[5]
  Difference of Imax values, nAChRs compared: -0.100
  Difference of pEC50 values, nAChRs compared: -0.52
[6]
  Difference of Imax values, nAChRs compared: 0.117
  Difference of pEC50 values, nAChRs compared: -0.87
[7]
  Difference of Imax values, nAChRs compared: 0.005
  Difference of pEC50 values, nAChRs compared: -0.04
[8]
  Difference of Imax values, nAChRs compared: 0.017
  Difference of pEC50 values, nAChRs compared: 0.24
[9]
  Difference of Imax values, nAChRs compared: 0.133
  Difference of pEC50 values, nAChRs compared: -0.85
[10]
  Difference of Imax values, nAChRs compared: 0.457
  Difference of pEC50 values, nAChRs compared: -0.09
[11]
  Difference of Imax values, nAChRs compared: 0.183
  Difference of pEC50 values, nAChRs compared: -0.74
[12]
  Difference of Imax values, nAChRs compared: 0.325
  Difference of pEC50 values, nAChRs compared: -0.91
[13]
  Difference of Imax values, nAChRs compared: -0.012
  Difference of pEC50 values, nAChRs compared: -0.28
[14]
  Difference of Imax values, nAChRs compared: 0.166
  Difference of pEC50 values, nAChRs compared: -0.98
[15]
  Difference of Imax values, nAChRs compared: -0.118
  Difference of pEC50 values, nAChRs compared: -1.48
[16]
  Difference of Imax values, nAChRs compared: -0.113
  Difference of pEC50 values, nAChRs compared: -1.52
[17]
  Difference of Imax values, nAChRs compared: -0.101
  Difference of pEC50 values, nAChRs compared: -1.24
[18]
  Difference of Imax values, nAChRs compared: 0.015
  Difference of pEC50 values, nAChRs compared: -2.33
Dα1/Dα2/Dβ1 vs. Dα1/Dβ1/Dβ2
  Difference of Imax values, nAChRs compared: 0.339
  Difference of pEC50 values, nAChRs compared: -1.57
Dα1/Dα2/Dβ1 vs. Dα2/Dα3/Dβ1
  Difference of Imax values, nAChRs compared: -0.183
  Difference of pEC50 values, nAChRs compared: -1.74
[19]
  Difference of Imax values, nAChRs compared: 0.065
  Difference of pEC50 values, nAChRs compared: -2.22
Dα1/Dα2/Dβ1 vs. Dα3/Dβ1/Dβ2
  Difference of Imax values, nAChRs compared: 0.207
  Difference of pEC50 values, nAChRs compared: -2.39
[20]
  Difference of Imax values, nAChRs compared: -0.128
  Difference of pEC50 values, nAChRs compared: 0.81
[21]
  Difference of Imax values, nAChRs compared: -0.116
  Difference of pEC50 values, nAChRs compared: 1.09
[22]
  Difference of Imax values, nAChRs compared: 0.050
  Difference of pEC50 values, nAChRs compared: 0.11
[23]
  Difference of Imax values, nAChRs compared: -0.190
  Difference of pEC50 values, nAChRs compared: 0.65
[24]
  Difference of Imax values, nAChRs compared: -0.185
  Difference of pEC50 values, nAChRs compared: 0.61
Dα1/Dα3/Dβ1 vs. Dα1/Dα2/Dβ1
  Difference of Imax values, nAChRs compared: -0.072
  Difference of pEC50 values, nAChRs compared: 2.13
[25]
  Difference of Imax values, nAChRs compared: -0.173
  Difference of pEC50 values, nAChRs compared: 0.89
[26]
  Difference of Imax values, nAChRs compared: -0.057
  Difference of pEC50 values, nAChRs compared: -0.20
Dα1/Dα3/Dβ1 vs. Dα1/Dβ1/Dβ2
  Difference of Imax values, nAChRs compared: 0.267
  Difference of pEC50 values, nAChRs compared: 0.56
Dα1/Dα3/Dβ1 vs. Dα2/Dα3/Dβ1
  Difference of Imax values, nAChRs compared: -0.255
  Difference of pEC50 values, nAChRs compared: 0.39
[27]
  Difference of Imax values, nAChRs compared: -0.007
  Difference of pEC50 values, nAChRs compared: -0.09
Dα1/Dα3/Dβ1 vs. Dα3/Dβ1/Dβ2
  Difference of Imax values, nAChRs compared: 0.135
  Difference of pEC50 values, nAChRs compared: -0.26
[28]
  Difference of Imax values, nAChRs compared: -0.452
  Difference of pEC50 values, nAChRs compared: 0.05
[29]
  Difference of Imax values, nAChRs compared: -0.440
  Difference of pEC50 values, nAChRs compared: 0.33
